Reference: the supplement of paper PMC10307832

How the values were obtained:
Assay in all cases: relative viability (nuclei count vs DMSO), 5 days (fraction); higher = more cells survive
[1] = system: RERF-LC-KJ
Outline: (§1)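 One day after seeding in 1536-well plates, lung cancer cell lines were dosed by pin tool. Dosing was either single-drug or a fixed anchor-drug dose plus five library-drug doses (not always all listed) in √10 steps. After 5 days, nuclei were stained in one fix-and-stain step and counted on 4× images, and relative viability is the nuclei count of treated wells over that of vehicle wells, given as the median of duplicate plates.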

[2] = system: NCI-H2405
Outline: as §1

[3] = system: HCC-827
Outline: as §1

[4] = system: NCI-H1666
Outline: as §1

[5] = system: LK-2
Outline: as §1

[6] = system: SW 900
Outline: as §1

[7] = system: NCI-H1975
Outline: as §1

[8] = system: NCI-H2126
Outline: as §1

[9] = system: NCI-H23
Outline: as §1

[10] = system: LXF-289
Outline: as §1

[11] = system: EMC-BAC-2
Outline: as §1

[12] = system: EKVX
Outline: as §1

[13] = system: EPLC-272H
Outline: as §1

[14] = system: HCC-78
Outline: as §1

[15] = system: NCI-H322M
Outline: as §1

[16] = system: ChaGo-K-1
Outline: as §1

[17] = system: LCLC-103H
Outline: as §1

[18] = system: LU99A
Outline: as §1

[19] = system: PC-14
Outline: as §1

[20] = system: NCI-H2342
Outline: as §1

For O=c1cc(-c2cccc3c2Sc2ccccc2S3)oc(N2CCOCC2)c1 + NC(=O)Nc1cc(-c2cccc(F)c2)sc1C(=O)N[C@H]1CCCNC1 [AZD7762] (partner 0.2 µM), the relative viability ([1]; first compound 0.08 µM) was 0.913, the relative viability ([1]; first compound 0.253 µM) was 1.05 and the relative viability ([1]; first compound 0.8 µM) was 0.846. For the same compound, the relative viability ([1]; first compound 2.53 µM) was 0.977, the relative viability ([1]; first compound 8 µM) was 1.02 and the relative viability ([2]; first compound 0.08 µM) was 0.691. It also gave a relative viability ([2]; first compound 0.253 µM) of 0.808, a relative viability ([2]; first compound 0.8 µM) of 0.731 and a relative viability ([2]; first compound 2.53 µM) of 0.64. It also gave a relative viability ([2]; first compound 8 µM) of 0.661, a relative viability ([3]; first compound 0.08 µM) of 0.199 and a relative viability ([3]; first compound 0.253 µM) of 0.196. The relative viability ([3]; first compound 0.8 µM) was 0.165, the relative viability ([3]; first compound 2.53 µM) was 0.122 and the relative viability ([3]; first compound 8 µM) was 0.188. The relative viability ([4]; first compound 0.08 µM) was 0.76, the relative viability ([4]; first compound 0.253 µM) was 0.928 and the relative viability ([4]; first compound 0.8 µM) was 0.781. For the same compound, the relative viability ([4]; first compound 2.53 µM) was 0.773, the relative viability ([4]; first compound 8 µM) was 0.85 and the relative viability ([5]; first compound 0.08 µM) was 0.468. The relative viability ([5]; first compound 0.253 µM) was 0.331, the relative viability ([5]; first compound 0.8 µM) was 0.374 and the relative viability ([5]; first compound 2.53 µM) was 0.219. For the same compound, the relative viability ([5]; first compound 8 µM) was 0.458, the relative viability ([6]; first compound 0.253 µM) was 0.862 and the relative viability ([6]; first compound 0.8 µM) was 0.719. The relative viability ([6]; first compound 2.53 µM) was 0.525, the relative viability ([6]; first compound 8 µM) was 0.418 and the relative viability ([7]; first compound 0.08 µM) was 0.601. The relative viability ([7]; first compound 0.253 µM) was 0.733, the relative viability ([7]; first compound 0.8 µM) was 0.502 and the relative viability ([7]; first compound 2.53 µM) was 0.631. It also gave a relative viability ([7]; first compound 8 µM) of 0.678, a relative viability ([8]; first compound 0.08 µM) of 1.02 and a relative viability ([8]; first compound 0.253 µM) of 1.16. For the same compound, the relative viability ([8]; first compound 0.8 µM) was 1.04, the relative viability ([8]; first compound 2.53 µM) was 1.03 and the relative viability ([8]; first compound 8 µM) was 1.04. The relative viability ([9]; first compound 0.08 µM) was 0.205, the relative viability ([9]; first compound 0.253 µM) was 0.251 and the relative viability ([9]; first compound 0.8 µM) was 0.349. The relative viability ([9]; first compound 2.53 µM) was 0.203, the relative viability ([9]; first compound 8 µM) was 0.229 and the relative viability ([10]; first compound 0.08 µM) was 1.11. It also gave a relative viability ([10]; first compound 0.253 µM) of 1.18, a relative viability ([10]; first compound 0.8 µM) of 1.15 and a relative viability ([10]; first compound 2.53 µM) of 1.09. For the same compound, the relative viability ([10]; first compound 8 µM) was 1.12, the relative viability ([11]; first compound 0.08 µM) was 1.06 and the relative viability ([11]; first compound 0.253 µM) was 1.37. It also gave a relative viability ([11]; first compound 0.8 µM) of 0.952, a relative viability ([11]; first compound 2.53 µM) of 1.11 and a relative viability ([11]; first compound 8 µM) of 1.2. For the same compound, the relative viability ([12]; first compound 0.08 µM) was 0.67, the relative viability ([12]; first compound 0.253 µM) was 0.709 and the relative viability ([12]; first compound 0.8 µM) was 0.74. The relative viability ([12]; first compound 2.53 µM) was 0.669, the relative viability ([12]; first compound 8 µM) was 0.717 and the relative viability ([13]; first compound 0.08 µM) was 0.19. For the same compound, the relative viability ([13]; first compound 0.253 µM) was 0.242, the relative viability ([13]; first compound 0.8 µM) was 0.22 and the relative viability ([13]; first compound 2.53 µM) was 0.24. For the same compound, the relative viability ([13]; first compound 8 µM) was 0.248, the relative viability ([14]; first compound 0.08 µM) was 0.624 and the relative viability ([14]; first compound 0.253 µM) was 0.643. The relative viability ([14]; first compound 0.8 µM) was 0.472, the relative viability ([14]; first compound 2.53 µM) was 0.614 and the relative viability ([14]; first compound 8 µM) was 0.655. The relative viability ([15]; first compound 0.08 µM) was 0.665, the relative viability ([15]; first compound 0.253 µM) was 0.537 and the relative viability ([15]; first compound 0.8 µM) was 0.51. For the same compound, the relative viability ([15]; first compound 2.53 µM) was 0.429, the relative viability ([15]; first compound 8 µM) was 0.534 and the relative viability ([16]; first compound 0.08 µM) was 0.827. The relative viability ([16]; first compound 0.253 µM) was 0.942, the relative viability ([16]; first compound 0.8 µM) was 0.779 and the relative viability ([16]; first compound 2.53 µM) was 0.889. It also gave a relative viability ([16]; first compound 8 µM) of 0.975, a relative viability ([17]; first compound 0.08 µM) of 0.717 and a relative viability ([17]; first compound 0.253 µM) of 0.825. The relative viability ([17]; first compound 0.8 µM) was 0.866, the relative viability ([17]; first compound 2.53 µM) was 0.784 and the relative viability ([17]; first compound 8 µM) was 0.822. For the same compound, the relative viability ([18]; first compound 0.08 µM) was 0.28, the relative viability ([18]; first compound 0.253 µM) was 0.349 and the relative viability ([18]; first compound 0.8 µM) was 0.38. For the same compound, the relative viability ([18]; first compound 2.53 µM) was 0.309, the relative viability ([18]; first compound 8 µM) was 0.456 and the relative viability ([19]; first compound 0.08 µM) was 0.338. It also gave a relative viability ([19]; first compound 0.253 µM) of 0.45, a relative viability ([19]; first compound 0.8 µM) of 0.264 and a relative viability ([19]; first compound 2.53 µM) of 0.263. For the same compound, the relative viability ([19]; first compound 8 µM) was 0.381, the relative viability ([20]; first compound 0.08 µM) was 0.415 and the relative viability ([20]; first compound 0.253 µM) was 0.466. It also gave a relative viability ([20]; first compound 0.8 µM) of 0.545, a relative viability ([20]; first compound 2.53 µM) of 0.529 and a relative viability ([20]; first compound 8 µM) of 0.541.

COc1nc(C)cnc1NS(=O)(=O)c1cccnc1-c1ccc(-c2nnco2)cc1 [Zibotentan] + NC(=O)Nc1cc(-c2cccc(F)c2)sc1C(=O)N[C@H]1CCCNC1 [AZD7762] (partner 0.2 µM) was tested, and the relative viability ([1]; first compound 0.08 µM) was 1.16, the relative viability ([1]; first compound 0.253 µM) was 0.938 and the relative viability ([1]; first compound 0.8 µM) was 0.841. The relative viability ([1]; first compound 2.53 µM) was 0.909, the relative viability ([2]; first compound 0.08 µM) was 0.766 and the relative viability ([2]; first compound 0.253 µM) was 0.701. For the same compound, the relative viability ([2]; first compound 0.8 µM) was 0.654, the relative viability ([2]; first compound 2.53 µM) was 0.846 and the relative viability ([3]; first compound 0.08 µM) was 0.215. The relative viability ([3]; first compound 0.253 µM) was 0.183, the relative viability ([3]; first compound 0.8 µM) was 0.183 and the relative viability ([3]; first compound 2.53 µM) was 0.223. The relative viability ([4]; first compound 0.08 µM) was 0.866, the relative viability ([4]; first compound 0.253 µM) was 0.795 and the relative viability ([4]; first compound 0.8 µM) was 0.898. For the same compound, the relative viability ([4]; first compound 2.53 µM) was 0.791, the relative viability ([5]; first compound 0.08 µM) was 0.479 and the relative viability ([5]; first compound 0.253 µM) was 0.327. It also gave a relative viability ([5]; first compound 0.8 µM) of 0.441, a relative viability ([5]; first compound 2.53 µM) of 0.282 and a relative viability ([6]; first compound 0.08 µM) of 0.68. For the same compound, the relative viability ([6]; first compound 0.253 µM) was 0.561, the relative viability ([6]; first compound 0.8 µM) was 0.495 and the relative viability ([6]; first compound 2.53 µM) was 0.725. The relative viability ([7]; first compound 0.08 µM) was 0.767, the relative viability ([7]; first compound 0.253 µM) was 0.626 and the relative viability ([7]; first compound 0.8 µM) was 0.728. The relative viability ([7]; first compound 2.53 µM) was 0.659, the relative viability ([8]; first compound 0.08 µM) was 0.986 and the relative viability ([8]; first compound 0.253 µM) was 0.987. It also gave a relative viability ([8]; first compound 0.8 µM) of 0.915, a relative viability ([8]; first compound 2.53 µM) of 1.04 and a relative viability ([9]; first compound 0.08 µM) of 0.224. The relative viability ([9]; first compound 0.253 µM) was 0.238, the relative viability ([9]; first compound 0.8 µM) was 0.196 and the relative viability ([9]; first compound 2.53 µM) was 0.26. For the same compound, the relative viability ([10]; first compound 0.08 µM) was 1.07, the relative viability ([10]; first compound 0.253 µM) was 1.05 and the relative viability ([10]; first compound 0.8 µM) was 1.06. It also gave a relative viability ([10]; first compound 2.53 µM) of 1.08, a relative viability ([11]; first compound 0.08 µM) of 1.08 and a relative viability ([11]; first compound 0.8 µM) of 1.08. It also gave a relative viability ([11]; first compound 2.53 µM) of 1.16, a relative viability ([12]; first compound 0.08 µM) of 0.742 and a relative viability ([12]; first compound 0.253 µM) of 0.648. It also gave a relative viability ([12]; first compound 0.8 µM) of 0.718, a relative viability ([12]; first compound 2.53 µM) of 0.766 and a relative viability ([13]; first compound 0.08 µM) of 0.217. The relative viability ([13]; first compound 0.253 µM) was 0.261, the relative viability ([13]; first compound 0.8 µM) was 0.168 and the relative viability ([13]; first compound 2.53 µM) was 0.259. It also gave a relative viability ([14]; first compound 0.08 µM) of 0.712, a relative viability ([14]; first compound 0.253 µM) of 0.475 and a relative viability ([14]; first compound 0.8 µM) of 0.664. It also gave a relative viability ([14]; first compound 2.53 µM) of 0.474, a relative viability ([15]; first compound 0.08 µM) of 0.605 and a relative viability ([15]; first compound 0.253 µM) of 0.551. It also gave a relative viability ([15]; first compound 0.8 µM) of 0.364, a relative viability ([15]; first compound 2.53 µM) of 0.605 and a relative viability ([16]; first compound 0.08 µM) of 0.912. The relative viability ([16]; first compound 0.253 µM) was 0.842, the relative viability ([16]; first compound 0.8 µM) was 0.756 and the relative viability ([16]; first compound 2.53 µM) was 0.927. For the same compound, the relative viability ([17]; first compound 0.08 µM) was 0.77, the relative viability ([17]; first compound 0.253 µM) was 0.786 and the relative viability ([17]; first compound 0.8 µM) was 0.778. The relative viability ([17]; first compound 2.53 µM) was 0.752, the relative viability ([18]; first compound 0.08 µM) was 0.425 and the relative viability ([18]; first compound 0.253 µM) was 0.412. The relative viability ([18]; first compound 0.8 µM) was 0.228, the relative viability ([18]; first compound 2.53 µM) was 0.429 and the relative viability ([19]; first compound 0.08 µM) was 0.445. It also gave a relative viability ([19]; first compound 0.253 µM) of 0.264, a relative viability ([19]; first compound 0.8 µM) of 0.324 and a relative viability ([19]; first compound 2.53 µM) of 0.369. It also gave a relative viability ([20]; first compound 0.08 µM) of 0.556, a relative viability ([20]; first compound 0.253 µM) of 0.507 and a relative viability ([20]; first compound 0.8 µM) of 0.439. The relative viability ([20]; first compound 2.53 µM) was 0.517.
